18 compounds from patent US20070219214A1, “Dual NK2/NK3-antagonists, pharmaceutical compositions comprising them, and processes for their preparation” (Solvay pharmaceuticals GmbH, priority 2006, published 2007) can be followed below.

Where two headings read alike, the source gives them in different places.

Assay [1] has as its target T1, human NK3 receptor (Homo sapiens, UniProt P29371).
T1 sequence (P29371 1-465): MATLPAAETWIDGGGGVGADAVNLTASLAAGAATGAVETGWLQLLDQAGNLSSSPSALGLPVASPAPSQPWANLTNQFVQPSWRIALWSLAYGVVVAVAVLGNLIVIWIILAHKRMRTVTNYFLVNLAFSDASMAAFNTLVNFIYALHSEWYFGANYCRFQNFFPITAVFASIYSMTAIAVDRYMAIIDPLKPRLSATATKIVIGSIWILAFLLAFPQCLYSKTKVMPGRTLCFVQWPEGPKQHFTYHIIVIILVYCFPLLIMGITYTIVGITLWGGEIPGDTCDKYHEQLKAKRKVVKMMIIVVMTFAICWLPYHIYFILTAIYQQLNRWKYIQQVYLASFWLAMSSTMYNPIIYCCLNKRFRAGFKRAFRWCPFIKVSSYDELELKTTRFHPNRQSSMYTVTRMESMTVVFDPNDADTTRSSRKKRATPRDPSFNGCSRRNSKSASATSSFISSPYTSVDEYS
Kind of assay: Binding potency of the test substances to NK3-receptors in vitro ([3H]-SR 142801 displacement). Set-up: expressed in transfected cells; host or cells: CHO cells (membrane preparation). Particulars: human NK3-receptor in CHO cell membranes, [3H]-SR 142801 (osanetant), average of at least three measurements; for Ki: read-out: pKi, binding potency to NK3-receptors (converted). From the text:
3. Determination of the Binding Potency of the Test Substances to NK3-Receptors in Vitro
The affinity of test compounds for NK3-receptors can be determined by measuring the ability of the test compound to displace a radiolabeled ligand from its specific binding site.
(§1) The radiolabel used in this assay is [^3H]-SR 142801 (osanetant). Receptors were obtained from membrane preparations of CHO-cells (Chinese Hamster Ovary cells), in which the human NK3-receptor was stably expressed. Membranes were incubated with [^3H]-osanetant in the absence or presence of test compounds at different concentrations, diluted in a buffer system. Separation of bound radioactivity from free radioactivity was done by filtration through glass fiber filters (Packard GF/B) with several washings with ice-cold buffer solution. Bound radioactivity was measured with a liquid scintillation counter (total binding). Unspecific binding was determined by incubation with an excess (1 μmol/l) of unlabeled osanetant. Specific binding is obtained by subtracting the unspecific binding from the total binding.
Radioactivity of the specific binding was plotted against the concentration of the test compound and IC50 values, i.e. the concentration of test compound by which 50% of the radioligand is displaced, were calculated. The inhibition constant (Ki) was calculated according to the Cheng-Prusoff equation, and listed as its negative logarithmic value (pKi) The pKi value describes the potency of a test compound to bind to a receptor.
(§2) The average result of all measurements is listed above.

Assay [2] concerns the target T2, human NK2-receptor (Homo sapiens, UniProt P21452).
T2 sequence (P21452 1-398): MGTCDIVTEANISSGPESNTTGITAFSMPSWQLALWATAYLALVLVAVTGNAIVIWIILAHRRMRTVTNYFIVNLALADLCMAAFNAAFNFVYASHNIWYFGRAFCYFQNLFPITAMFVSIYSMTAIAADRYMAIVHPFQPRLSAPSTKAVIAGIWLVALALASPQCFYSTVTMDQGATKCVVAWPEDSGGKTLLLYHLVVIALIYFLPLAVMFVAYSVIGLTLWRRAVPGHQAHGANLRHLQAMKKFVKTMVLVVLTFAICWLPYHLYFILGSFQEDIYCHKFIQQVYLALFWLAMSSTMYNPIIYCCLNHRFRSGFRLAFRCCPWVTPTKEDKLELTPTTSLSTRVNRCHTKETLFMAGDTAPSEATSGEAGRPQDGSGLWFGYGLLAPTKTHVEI
As to the kind of experiment: Binding potency of the test substances to NK2-receptors in vitro ([3H]-SR 48968 displacement). Details: expressed in transfected cells; host or cells: CHO cells (membrane preparation). The settings on record: human NK2-receptor in CHO cell membranes, [3H]-SR 48968 (saredutant), average of at least three measurements; for Ki: read-out: pKi, binding potency to NK2-receptors (converted).
Description: 2. Determination of the Binding Potency of the Test Substances to NK2-Receptors in Vitro
The affinity of test compounds for NK2-receptors can be determined by measuring the ability of the test compound to displace a radiolabeled ligand from its specific binding site.
as §1, with “48968 (saredutant).” for “142801 (osanetant).”, “NK2-receptor” for “NK3-receptor”, “[^3H]-saredutant” for “[^3H]-osanetant”, “(0.1” for “(1”, “saredutant.” for “osanetant.”
Radioactivity of the specific binding was plotted against the concentration of the test compound and IC50 values, i.e. the concentration of test compound by which 50% of the radioligand is displaced, were calculated. The inhibition constant (Ki) was calculated according to the Cheng-Prusoff equation, and listed as its negative logarithmic value (pKi). The pKi value describes the potency of a test compound to bind to a receptor.
as §2

Assay [3] has as its target T2, human NK2-receptor. Kind of assay: Functional cellular test, Ca2+ measurements using FLIPR for NK2 activity.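 Also: CHO cells stably expressing the human receptor, loaded with a calcium dye, antagonist inhibition of ligand-evoked intracellular calcium rise read as peak fluorescence change on FLIPR.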
Description: Functional Cellular Tests of the NK1-, NK2- and NK3-Antagonism
Functional cellular tests of the antagonistic effect of the compounds of the present invention on the human tachykinin receptors were performed in CHO cells expressing the recombinant human NK1, NK2 or NK3-receptor. In these tests the inhibition of ligand-induced increase in mobilization of intracellular calcium and inhibition of ligand-induced phosphorylation of mitogen activated protein kinase (MAPK) were determined, which can be used as a measure of functional activity of tachykinin-antagonists. Additionally, the antagonistic properties of reference compounds on the different tachykinin receptors were characterized for comparison.
The effects of test compounds were assessed using Chinese hamster ovary (CHO) fibroblast cells, stably expressing cloned human NK1, NK2 or NK3-receptors. The NK receptor is coupled to Gq. The activation of the Gq protein by ligand binding to the receptor leads to a mobilization of intracellular calcium and phosphorylation of MAPK. Both systems were used to determine functional effects of the test compounds.
Ca^2+ Measurements Using FLIPR for NK1 and NK2 Activity
For tests, cells were seeded 24 hours prior to the experiment into black 96-well microplates. The cell density was 2.2×10^4 cells/well. All steps were done under sterile conditions. In order to observe changes in intracellular calcium levels, cells were loaded with a calcium-sensitive dye. This dye (FLUO-4, from Molecular Probes) excites at 488 nm, and emits in the 500 nm to 560 nm range, only if a complex with calcium is formed. For the dye loading the growth-medium was aspirated out of the well without disturbing the confluent cell layer and 100 μl loading medium (HBSS, 4 μM FLUO-4, 0.005% (w/v) pluronic acid, 2.5 mM probenecid, 20 mM HEPES, pH 7.4) was dispensed into each well using an automatic pipettor system (Multidrop, Labsystems). Pluronic acid was added to increase dye solubility and dye uptake into the cells, whereas probenecid, an anion exchange inhibitor, was added to the loading medium to increase dye retention in the cells. The cells were incubated in a 5% CO2 incubator at 37° C. for 40 minutes. After dye loading, the cells were washed three times with wash-buffer (HBSS, 2.5 mM probenecid, 20 mM HEPES, pH 7.4) to reduce basal fluorescence. In the last washing step the buffer was aspirated and replaced with 100 μl washing buffer. […] The FLIPR setup parameters were set to 0.4 sec exposure length, filter 1, 50 μl fluid addition, pipettor height at 125 μl, dispense speed 40 μl/sec without mixing. Maximal fluorescence changes were obtained using the statistic function of the FLIPR software, and data plotted using GraphPad Prism 4. All points were expressed as a percentage inhibition of the control agonist. IC50 values were determined using sigmoidal dose-response curve fitting. Antagonist potencies (pA2) values were calculated using equation: pA2=−log(IC50/(1+[L]/EC50)),
In assay [4] the target is T1, human NK3 receptor. As to the kind of experiment: Functional cellular test, Ca2+ measurements using aequorin for NK3 activity. Set-up: expressed in transfected cells; host or cells: cell line co-expressing mitochondrially targeted apoaequorin (CHO according to b76/b77). It is filed as cell-based. Particulars: for Kb: read-out: pA2 data for NK3 (converted).
The target in assay [5] is T3, human NK1-receptor (Homo sapiens, UniProt P25103). As to the kind of experiment: Binding potency of the test substances to NK1-receptors in vitro ([3H]-Substance P displacement). The settings on record: human NK1-receptor in CHO cell membranes, average of at least three measurements. On the procedure: 1. Determination of the Binding Potency of the Test Substances to NK1-Receptors in Vitro
The affinity of test compounds for NK1-receptors can be determined by measuring the ability of the test compound to displace a radiolabeled ligand from its specific binding site. The tests were performed at Solvay Pharmaceuticals, Weesp, The Netherlands.
Separation of bound radioactivity from free radioactivity was done by filtration through glass fiber filters (Packard GF/B) with several washings with ice-cold buffer solution. Bound radioactivity was measured with a liquid scintillation counter (total binding).
The inhibition constant (Ki) was calculated according to the Cheng-Prusoff equation, and listed as its negative logarithmic value (pKi). The pKi value describes the potency of a test compound to bind to a receptor.

The target in assay [6] is T3, human NK1-receptor. Kind of assay: Functional cellular test, Ca2+ measurements using FLIPR for NK1 activity. It is filed as cell-based. Details: expressed in transfected cells; host or cells: CHO fibroblast cells. Particulars: read-out: pA2 data for NK1 (converted). An excerpt: The NK receptor is coupled to Gq.
All steps were done under sterile conditions.

Where [7] appears, read: read-out: pKi, binding potency to NK1-receptors (converted).

T3 sequence (P25103 whole entry): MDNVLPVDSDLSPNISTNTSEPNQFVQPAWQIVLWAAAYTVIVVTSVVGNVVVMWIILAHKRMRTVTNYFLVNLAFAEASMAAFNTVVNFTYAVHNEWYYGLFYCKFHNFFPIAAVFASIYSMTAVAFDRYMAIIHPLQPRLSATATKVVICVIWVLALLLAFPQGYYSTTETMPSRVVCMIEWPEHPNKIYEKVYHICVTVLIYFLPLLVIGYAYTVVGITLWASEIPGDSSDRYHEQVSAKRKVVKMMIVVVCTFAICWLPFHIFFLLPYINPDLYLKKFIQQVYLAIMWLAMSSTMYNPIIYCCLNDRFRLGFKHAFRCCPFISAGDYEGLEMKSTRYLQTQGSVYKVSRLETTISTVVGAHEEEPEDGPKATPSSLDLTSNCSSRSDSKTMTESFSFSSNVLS

Take `CN(C)C(=O)C1(N2CCCCC2)CCN(CC[C@H](CN(C)C(=O)c2ccccc2O)c2ccc(Cl)c(Cl)c2)CC1` [compound 12]: on human NK3 receptor [1], the “pKi, binding potency to NK3-receptors” value was found to be 7.9. Further, the “pKi, binding potency to NK2-receptors” value at human NK2-receptor [2] is on record as 8.7. On human NK2-receptor [3] (CHO cells, human NK2, FLIPR Ca2+, agonist NKA 10^-7 M), the “pA2 data for NK2” value was found to be 8.3. For the same compound, the “pA2 data for NK3” value on human NK3 receptor [4] (cell line with human NK3 receptor and apoaequorin, agonist senktide 5x10-8 M) was found to be 7.9.

Take `CNc1ccccc1C(=O)N(C)CC(CCN1CCC(C(=O)N(C)C)(N2CCCCC2)CC1)c1ccc(Cl)c(Cl)c1` (stereo not shown) [compound 24]: the Ki is 79.4 nM on human NK1-receptor [5] (setting [7]) and 5.01 nM on human NK2-receptor [2].

For `CN(C)C(=O)C1(N2CCCCC2)CCN(CCC(CN(C)C(=O)c2ccoc2)c2ccc(Cl)c(Cl)c2)CC1` (stereo not shown) [compound 36], the Ki at human NK3 receptor [1] was 5.01 nM; on human NK2-receptor [2] it was 1.58 nM. The Kb on human NK2-receptor [3] was 0.501 nM; at human NK3 receptor [4], 63.1 nM.

In the case of `CN(C)C(=O)C1(N2CCCCC2)CCN(CCC(CN(C)C(=O)c2cccs2)c2ccc(Cl)c(Cl)c2)CC1` (stereo not shown) [compound 37], the figures for the Ki on human NK3 receptor [1] and at human NK2-receptor [2] were 20 nM and 1.58 nM, respectively. For the same compound, the Kb is 1.58 nM at human NK2-receptor [3] and 31.6 nM on human NK3 receptor [4].

For `CN(C)C(=O)C1(N2CCCCC2)CCN(CCC(CN(C)C(=O)c2ccccn2)c2ccc(Cl)c(Cl)c2)CC1` (stereo not shown) [compound 43], the Ki at human NK3 receptor [1] was 5.01 nM; on human NK2-receptor [2], 0.251 nM. Further, the Kb at human NK2-receptor [3] was 0.631 nM; at human NK3 receptor [4], 31.6 nM.

Regarding `CN(C)C(=O)C1(N2CCCCC2)CCN(CCC(CN(C)C(=O)Cc2ccncc2)c2ccc(Cl)c(Cl)c2)CC1` (stereo not shown) [compound 51], the results for the Ki at human NK3 receptor [1] and at human NK2-receptor [2] were 6.31 nM and 79.4 nM, respectively. Besides, the results for the Kb at human NK2-receptor [3] and at human NK3 receptor [4] were 39.8 nM and 31.6 nM, respectively.

On to `CN(C)C(=O)C1(N2CCCCC2)CCN(CCC(CN(C)C(=O)c2ccc(OC(F)(F)F)cc2)c2ccc(Cl)c(Cl)c2)CC1` (stereo not shown) [compound 55], for which the Ki at human NK3 receptor [1] was 3.98 nM; at human NK2-receptor [2], 6.31 nM. Besides, the Kb at human NK2-receptor [3] is 2 nM; on human NK3 receptor [4], 7.94 nM.

In the case of `CN(C)C(=O)C1(N2CCCCC2)CCN(CCC(CN(C)C(=O)Cc2ccc(C(F)(F)F)c(C(F)(F)F)c2)c2ccc(Cl)c(Cl)c2)CC1` (stereo not shown) [compound 56], the Ki is 5.01 nM at human NK3 receptor [1], 63.1 nM at human NK1-receptor [5] (setting [7]) and 25.1 nM on human NK2-receptor [2].

For the compound `Cc1c(C(=O)N(C)CC(CCN2CCC(C(=O)N(C)C)(N3CCCCC3)CC2)c2ccc(Cl)c(Cl)c2)nnn1Cc1ccccc1` (stereo not shown) [compound 67], the Ki on human NK3 receptor [1] is 5.01 nM; on human NK2-receptor [2], 6.31 nM. Further, the Kb is 25.1 nM on human NK2-receptor [3] and 15.8 nM at human NK3 receptor [4].

Consider `CN(C)C(=O)C1(N2CCCCC2)CCN(CCC(CN(C)C(=O)c2cc(C(F)(F)F)cc(C(F)(F)F)c2)c2ccc(Cl)c(Cl)c2)CC1` (stereo not shown) [compound 70], for which the values for the Ki on human NK3 receptor [1], on human NK1-receptor [5] (setting [7]) and on human NK2-receptor [2] were 63.1 nM, 63.1 nM and 25.1 nM, respectively.

Take `CN(C)C(=O)C1(N2CCCCC2)CCN(CCC(CN(C)C(=O)c2cccc(Cl)c2)c2ccc(Cl)c(Cl)c2)CC1` (stereo not shown) [compound 80]: the Ki at human NK3 receptor [1] is 79.4 nM; on human NK1-receptor [5] (setting [7]) it was 79.4 nM; at human NK2-receptor [2], 2 nM.

On to `COc1cccc(C(=O)N(C)CC(CCN2CCC(C(=O)N(C)C)(N3CCCCC3)CC2)c2ccc(Cl)c(Cl)c2)c1` (stereo not shown) [compound 82], for which the Ki on human NK3 receptor [1] was 25.1 nM; on human NK1-receptor [5] (setting [7]), 79.4 nM; at human NK2-receptor [2] it was 2.51 nM.

As for `CN(C)C(=O)C1(N2CCCCC2)CCN(CCC(CN(C)C(=O)c2cccc(C(F)(F)F)c2)c2ccc(Cl)c(Cl)c2)CC1` (stereo not shown) [compound 83], the Ki is 3.16 nM at human NK3 receptor [1]; 79.4 nM at human NK1-receptor [5] (pKi, binding potency to NK1-receptors); 5.01 nM at human NK2-receptor [2]. The same compound gave a Kb on human NK2-receptor [3] of 15.8 nM.

In the case of `CN(C)C(=O)C1(N2CCN(CC[C@H](CN(C)C(=O)c3ccccc3)c3ccc(Cl)c(Cl)c3)CC2)CCCCC1` [compound 96, N-[(2S)-2-(3,4-dichlorophenyl)-4-(4-{1-[(dimethylamino)-carbonyl]cyclohexyl}piperazin-1-yl)butyl]-N-methylbenzamide], the Ki at human NK2-receptor [2] was 2 nM. Besides, the Kb is 1.26 nM at human NK2-receptor [3] and 31.6 nM on human NK1-receptor [6].

As for `CN(C)C(=O)C1CCCCN1C1CCN(CCC(CN(C)C(=O)c2ccccc2)c2ccc(Cl)c(Cl)c2)CC1` (stereo not shown) [compound 97], the Ki was 79.4 nM on human NK3 receptor [1] and 2 nM on human NK2-receptor [2]. Moreover, the Kb on human NK2-receptor [3] is 0.251 nM; on human NK3 receptor [4], 79.4 nM.

With `CN(CC(CCN1CCC(C(=O)N2CCCCC2)(N2CCCCC2)CC1)c1ccc(Cl)c(Cl)c1)C(=O)c1cc(C#N)cc2ccccc12` (stereo not shown) [compound 125], the Ki on human NK3 receptor [1] is 50.1 nM; on human NK1-receptor [5] (setting [7]), 12.6 nM; at human NK2-receptor [2] it was 50.1 nM.

As for `CN(CC(CCN1CCC(C(=O)N2CCCC2)(N2CCCCC2)CC1)c1ccc(Cl)c(Cl)c1)C(=O)c1cc(C#N)cc2ccccc12` (stereo not shown) [compound 126], the figures for the Ki on human NK3 receptor [1], at human NK1-receptor [5] (setting [7]) and at human NK2-receptor [2] were 39.8 nM, 6.31 nM and 10 nM, respectively.

Take `CN(C)C(=O)C1(N(C)C)CCN(CCC(CN(C)C(=O)c2ccccc2)c2ccc(Cl)c(Cl)c2)CC1` (stereo not shown) [compound 127]: the Ki at human NK1-receptor [5] (setting [7]) was 79.4 nM; at human NK2-receptor [2], 2 nM.
